System: not given
Experiment: not given
Conditions: not given

melting point	SMILES
178.6 to 179.4 °C	CCCCCCCCCCCCC(=O)OC[C@]1(N=[N+]=[N-])OC(n2ccc(N)nc2=O)[C@H](O)[C@@H]1O.Cl (some centres unmarked)
80 to 83.5 °C	CC(C)(C)OC(=O)Nc1ccn([C@@H]2O[C@@](CO)(N=[N+]=[N-])[C@@H](O)[C@H]2O)c(=O)n1
91 to 94.9 °C	CCCC(=O)O[C@H]1[C@@H](n2ccc(N)nc2=O)O[C@@](CO)(N=[N+]=[N-])[C@H]1OC(=O)CCC.O=C(O)C(F)(F)F
136.2 to 140 °C	CC(C)(C)C(=O)OC[C@]1(N=[N+]=[N-])O[C@@H](n2ccc(N)nc2=O)[C@@H](OC(=O)C(C)(C)C)[C@H]1OC(=O)C(C)(C)C.Cl
164.9 to 168.5 °C	CCCCCCCCNC(=O)OC[C@@]1(N=[N+]=[N-])O[C@H](n2ccc(N)nc2=O)[C@H](O)[C@@H]1O.Cl
191.1 to 191.9 °C	CC(C)C(=O)O[C@H]1[C@@H](n2ccc(N)nc2=O)O[C@@](CO)(N=[N+]=[N-])[C@H]1OC(=O)C(C)C.Cl
94 to 96.8 °C	CC(=O)Nc1ccn([C@@H]2O[C@@](CO)(N=[N+]=[N-])[C@@H](O)[C@H]2O)c(=O)n1
72.9 to 74.7 °C	CCCCC(=O)OC[C@@]1(N=[N+]=[N-])O[C@H](n2ccc(N)nc2=O)[C@H](OC(=O)CCCC)[C@@H]1OC(=O)CCCC.Cl [Compound 46, (S)-1-((3R,4S,5R)-5-Azido-3,4-bis-pentanoyloxy-5-pentanoyloxymethyl-tetrahydro-furan-2-yl)-2-oxo-1,2-dihydro-pyrimidin-4-yl-ammonium; chloride]
154 to 155 °C	CCCCCCCCCCCC(=O)OC[C@@]1(N=[N+]=[N-])O[C@H](n2ccc(N)nc2=O)[C@H](O)[C@@H]1O.Cl
75 to 77.7 °C	CCCCCCCCCCOC(=O)OC[C@@]1(N=[N+]=[N-])O[C@H](n2ccc(N)nc2=O)[C@H](O)[C@@H]1O.O=C(O)C(F)(F)F [Compound 86, (S)-1-((3R,4S,5R)-5-Azido-5-decyloxycarbonyloxymethyl-3,4-dihydroxy-tetrahydro-furan-2-yl)-2-oxo-1,2-dihydro-pyrimidin-4-yl-ammonium; trifluoro-acetate]
194.6 to 198.2 °C	CCC(=O)O[C@H]1[C@@H](n2ccc(N)nc2=O)O[C@@](CO)(N=[N+]=[N-])[C@H]1OC(=O)CC.Cl
174.7 to 176.1 °C	CCCCCCCCCOC(=O)OC[C@@]1(N=[N+]=[N-])O[C@H](n2ccc(N)nc2=O)[C@H](O)[C@@H]1O.Cl
115.3 to 120.1 °C	CCCCC(=O)O[C@H]1[C@@H](n2ccc(N)nc2=O)O[C@@](CO)(N=[N+]=[N-])[C@H]1OC(=O)CCCC.CS(=O)(=O)O
71 to 103.9 °C	CCCCCCOC(=O)OC[C@@]1(N=[N+]=[N-])O[C@H](n2ccc(N)nc2=O)[C@H](O)[C@@H]1O.O=C(O)C(F)(F)F
163 to 166.5 °C	Cl.[N-]=[N+]=N[C@]1(COC(=O)c2ccccc2)O[C@H](n2ccc(N)nc2=O)[C@H](O)[C@@H]1O
88 to 90.9 °C	CC(=O)OC[C@@]1(N=[N+]=[N-])O[C@H](n2ccc(N)nc2=O)[C@H](OC(C)=O)[C@@H]1OC(C)=O.Cl
62.1 to 87.7 °C	CCCCC(=O)OC[C@@]1(N=[N+]=[N-])O[C@H](n2ccc(N)nc2=O)[C@H](O)[C@@H]1O.Cl
187 to 189 °C	Cc1ccc(C(=O)OC[C@@]2(N=[N+]=[N-])O[C@H](n3ccc(N)nc3=O)[C@H](O)[C@@H]2O)cc1.Cl
134.4 to 136 °C	CCCCCCOC(=O)Nc1ccn([C@H]2O[C@@](CO)(N=[N+]=[N-])[C@@H](O)[C@H]2O)c(=O)n1

melting point	SMILES
124.3 to 128.4 °C	CCCCC(=O)O[C@H]1[C@@H](n2ccc(N)nc2=O)O[C@@](CO)(N=[N+]=[N-])[C@H]1OC(=O)CCCC.Cl
127.3 to 128.6 °C	CCCCCC(=O)O[C@H]1[C@@H](n2ccc(N)nc2=O)O[C@@](CO)(N=[N+]=[N-])[C@H]1OC(=O)CCCCC.CS(=O)(=O)O
166.2 to 168.1 °C	Cl.[N-]=[N+]=N[C@]1(CO)O[C@H](n2ccc(N)nc2=O)[C@H](OC(=O)c2ccccc2)[C@@H]1OC(=O)c1ccccc1
167.5 to 170.6 °C	CCCC(=O)OC[C@@]1(N=[N+]=[N-])O[C@H](n2ccc(N)nc2=O)[C@H](OC(=O)CCC)[C@@H]1OC(=O)CCC.Cl
108.1 to 118.2 °C	[N-]=[N+]=N[C@]1(CO)O[C@@H](n2ccc(NC(=O)c3ccccc3)nc2=O)[C@H](O)[C@@H]1O
142 to 142.8 °C	CC(C)CC(=O)OC[C@@]1(N=[N+]=[N-])O[C@H](n2ccc(N)nc2=O)[C@H](OC(=O)CC(C)C)[C@@H]1OC(=O)CC(C)C.Cl
90.9 to 94.6 °C	CCCCCCCOC(=O)OC[C@@]1(N=[N+]=[N-])O[C@H](n2ccc(N)nc2=O)[C@H](O)[C@@H]1O.O=C(O)C(F)(F)F
180.6 to 181.2 °C	CCCCCCCCCC(=O)OC[C@@]1(N=[N+]=[N-])O[C@H](n2ccc(N)nc2=O)[C@H](O)[C@@H]1O.Cl
141.1 to 141.8 °C	COC(=O)Nc1ccn([C@H]2O[C@@](CO)(N=[N+]=[N-])[C@@H](O)[C@H]2O)c(=O)n1
108 to 114 °C	CC(C)(C)C(=O)Nc1ccn([C@@H]2O[C@@](CO)(N=[N+]=[N-])[C@@H](O)[C@H]2O)c(=O)n1
149 to 153 °C	CCC(=O)OC[C@@]1(N=[N+]=[N-])O[C@H](n2ccc(N)nc2=O)[C@H](OC(=O)CC)[C@@H]1OC(=O)CC.CS(=O)(=O)O
77 to 80.1 °C	CC(=O)Nc1ccn([C@@H]2O[C@@](COC(C)=O)(N=[N+]=[N-])[C@@H](OC(C)=O)[C@H]2OC(C)=O)c(=O)n1
70.5 to 81 °C	CCCCCCCCOC(=O)OC[C@@]1(N=[N+]=[N-])O[C@H](n2ccc(N)nc2=O)[C@H](O)[C@@H]1O.O=C(O)C(F)(F)F
86.5 to 94 °C	CCCCOC(=O)Nc1ccn([C@@H]2O[C@@](CO)(N=[N+]=[N-])[C@@H](O)[C@H]2O)c(=O)n1
154.6 to 155.6 °C	CCCC(=O)O[C@H]1[C@@H](n2ccc(N)nc2=O)O[C@@](CO)(N=[N+]=[N-])[C@H]1OC(=O)CCC.Cl
75.9 to 79.9 °C	CCC(=O)OC[C@@]1(N=[N+]=[N-])O[C@@H](n2ccc(N)nc2=O)[C@H](OC(=O)CC)[C@@H]1OC(=O)CC
208.9 to 210.3 °C	Cl.[N-]=[N+]=N[C@]1(COC(=O)c2ccccc2)O[C@H](n2ccc(N)nc2=O)[C@H](OC(=O)c2ccccc2)[C@@H]1OC(=O)c1ccccc1
72 to 75.2 °C	CCC(=O)OC[C@@]1(N=[N+]=[N-])O[C@H](n2ccc(N)nc2=O)[C@H](OC(=O)CC)[C@@H]1OC(=O)CC.Cl

SMILES	melting point
CC(C)(C)C(=O)Nc1ccn([C@@H]2O[C@@](COC(=O)C(C)(C)C)(N=[N+]=[N-])[C@@H](OC(=O)C(C)(C)C)[C@H]2OC(=O)C(C)(C)C)c(=O)n1 [Compound 5, 2,2-Dimethyl-propionic acid (2R,3S,4R,5R)-2-azido-5-[4-(2,2-dimethyl-propionylamino)-2-oxo-2H-pyrimidin-1-yl]-3,4-bis-(2,2-dimethyl-propionyloxy)-tetrahydro-furan-2-ylmethyl ester]	67.4 to 80 °C

System: HCV replicon RNA (Renilla luciferase HCV replicon cells 2209-23)
Experiment: Renilla luciferase assay (HCV replicon)
Format: cell-based, Hepatitis C virus
Conditions: Huh-7, 72 h; 2209-23 replicon cells (human hepatoma Huh7), three days incubation, 50% reduction of replicon level

SMILES	IC50
[N-]=[N+]=N[C@]1(COC(=O)c2ccccc2)O[C@@H](n2ccc(N)nc2=O)[C@H](OC(=O)c2ccccc2)[C@@H]1OC(=O)c1ccccc1 [Compound 25, Benzoic acid (2R,3S,4R,5R)-3,4-dibenzoyloxy-5-(4-amino-2-oxo-2H-pyrimidin-1-yl)-2-azido-tetrahydro-furan-2-ylmethyl ester]	2.47 µM
CC(C)C(N)C(=O)OC[C@@]1(N=[N+]=[N-])O[C@@H](n2ccc(N)nc2=O)[C@H](O)[C@@H]1O (stereo partly drawn) [Compound 18, 1-[(2R,3S,4R,5R)-5-(4-Amino-2-oxo-2H-pyrimidin-1-yl)-2-azido-3,4-dihydroxy-tetrahydro-furan-2-ylmethoxycarbonyl]-2-methyl-propyl-ammonium; chloride]	2.4 µM
CC(C)(C)C(=O)Nc1ccn([C@@H]2O[C@@](COC(=O)C(C)(C)C)(N=[N+]=[N-])[C@@H](OC(=O)C(C)(C)C)[C@H]2OC(=O)C(C)(C)C)c(=O)n1 [Compound 5, 2,2-Dimethyl-propionic acid (2R,3S,4R,5R)-2-azido-5-[4-(2,2-dimethyl-propionylamino)-2-oxo-2H-pyrimidin-1-yl]-3,4-bis-(2,2-dimethyl-propionyloxy)-tetrahydro-furan-2-ylmethyl ester]	5.33 µM
